In PubChem BioAssay (NCI):
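These data come from cells grown in 96-well plates and exposed to compound for 48 hours at five concentrations. TGI is the concentration that stops growth completely.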

Assays:
Assay in all cases: inhibition of tumour cell growth, NCI panel, 48 h
M14 melanoma = test system: M14 melanoma
A498 renal = test system: A498 renal
HL-60(TB) leukemia = test system: HL-60(TB) leukemia
A549 NSCLC = test system: A549 NSCLC
NCI-H460 lung = test system: NCI-H460 lung
IGROV1 ovarian = test system: IGROV1 ovarian
EKVX NSCLC = test system: EKVX NSCLC
OVCAR-5 ovarian = test system: OVCAR-5 ovarian
HOP-62 NSCLC = test system: HOP-62 NSCLC
RXF 393 renal = test system: RXF 393 renal
SNB-78 CNS = test system: SNB-78 CNS
SF-268 CNS = test system: SF-268 CNS
HT29 colon = test system: HT29 colon
SR leukemia = test system: SR leukemia
NCI-H522 lung = test system: NCI-H522 lung
SK-OV-3 ovarian = test system: SK-OV-3 ovarian
DMS 114 small cell lung = test system: DMS 114 small cell lung
HCT-116 colon = test system: HCT-116 colon
SNB-19 CNS = test system: SNB-19 CNS
UACC-257 melanoma = test system: UACC-257 melanoma
TK-10 renal = test system: TK-10 renal
U251 CNS = test system: U251 CNS
MOLT-4 leukemia = test system: MOLT-4 leukemia
CCRF-CEM leukemia = test system: CCRF-CEM leukemia
UO-31 renal = test system: UO-31 renal
NCI-H23 lung = test system: NCI-H23 lung
M19-MEL melanoma = test system: M19-MEL melanoma
HOP-92 NSCLC = test system: HOP-92 NSCLC
KM12 colon = test system: KM12 colon
OVCAR-8 ovarian = test system: OVCAR-8 ovarian
SF-295 CNS = test system: SF-295 CNS
SK-MEL-28 melanoma = test system: SK-MEL-28 melanoma
NCI-H226 lung = test system: NCI-H226 lung
UACC-62 melanoma = test system: UACC-62 melanoma
DU-145 prostate = test system: DU-145 prostate
MCF7 breast = test system: MCF7 breast
PC-3 prostate = test system: PC-3 prostate
SN12C renal = test system: SN12C renal
ACHN renal = test system: ACHN renal
SK-MEL-5 melanoma = test system: SK-MEL-5 melanoma
MDA-N = test system: MDA-N
OVCAR-4 ovarian = test system: OVCAR-4 ovarian
SF-539 CNS = test system: SF-539 CNS
MDA-MB-231 breast = test system: MDA-MB-231 breast
LOX IMVI melanoma = test system: LOX IMVI melanoma
HCC-2998 colon = test system: HCC-2998 colon
MDA-MB-435 = test system: MDA-MB-435
HCT-15 colon = test system: HCT-15 colon
SNB-75 CNS = test system: SNB-75 CNS
786-0 renal = test system: 786-0 renal
NCI/ADR-RES ovarian = test system: NCI/ADR-RES ovarian
MALME-3M melanoma = test system: MALME-3M melanoma
K-562 leukemia = test system: K-562 leukemia
T-47D breast = test system: T-47D breast
CAKI-1 renal = test system: CAKI-1 renal
SW-620 colon = test system: SW-620 colon
BT-549 breast = test system: BT-549 breast
RPMI-8226 leukemia = test system: RPMI-8226 leukemia
OVCAR-3 ovarian = test system: OVCAR-3 ovarian
COLO 205 colon = test system: COLO 205 colon
HS 578T breast = test system: HS 578T breast

**Q.** Which TGI (M14 melanoma) does the source give for `CC1(Cl)CCC2(CC(Br)=CC3OC32C)CC1Br` (stereo not given) here?
**A.** Its TGI is greater than 100 µM.

**Q.** What about the TGI (A498 renal) of the same compound?
**A.** The TGI was 68.8 µM.

**Q.** And the TGI (HL-60(TB) leukemia)?
**A.** The TGI was 38.7 µM.

**Q.** And the TGI (A549 NSCLC)?
**A.** Its TGI is greater than 100 µM.

**Q.** And the TGI (NCI-H460 lung)?
**A.** The TGI was 71.1 µM.

**Q.** And the TGI (IGROV1 ovarian)?
**A.** The TGI was greater than 100 µM.

**Q.** What about the TGI (EKVX NSCLC) of the same compound?
**A.** Its TGI is greater than 100 µM.

**Q.** What about the TGI (OVCAR-5 ovarian) of the same compound?
**A.** Its TGI is greater than 100 µM.

**Q.** What about the TGI (HOP-62 NSCLC) of the same compound?
**A.** The TGI was 87.4 µM.

**Q.** And the TGI (RXF 393 renal)?
**A.** Its TGI is 40.8 µM.

**Q.** What about the TGI (SNB-78 CNS) of the same compound?
**A.** Its TGI is 86.6 µM.

**Q.** And the TGI (SF-268 CNS)?
**A.** Its TGI is 50.1 µM.

**Q.** What about the TGI (HT29 colon) of the same compound?
**A.** The TGI was 57 µM.

**Q.** And the TGI (SR leukemia)?
**A.** The TGI was 55.8 µM.

**Q.** And the TGI (NCI-H522 lung)?
**A.** Its TGI is 55.5 µM.

**Q.** And the TGI (SK-OV-3 ovarian)?
**A.** The TGI was greater than 100 µM.

**Q.** What about the TGI (DMS 114 small cell lung) of the same compound?
**A.** Its TGI is 83.2 µM.

**Q.** And the TGI (HCT-116 colon)?
**A.** The TGI was 40.2 µM.

**Q.** What about the TGI (SNB-19 CNS) of the same compound?
**A.** Its TGI is greater than 100 µM.

**Q.** What about the TGI (UACC-257 melanoma) of the same compound?
**A.** The TGI was 42.4 µM.

**Q.** And the TGI (TK-10 renal)?
**A.** The TGI was greater than 100 µM.

**Q.** And the TGI (U251 CNS)?
**A.** The TGI was 41.8 µM.

**Q.** And the TGI (MOLT-4 leukemia)?
**A.** Its TGI is 52.4 µM.

**Q.** What about the TGI (CCRF-CEM leukemia) of the same compound?
**A.** Its TGI is 53.5 µM.

**Q.** And the TGI (UO-31 renal)?
**A.** The TGI was 66.6 µM.

**Q.** And the TGI (NCI-H23 lung)?
**A.** Its TGI is 49.9 µM.

**Q.** And the TGI (M19-MEL melanoma)?
**A.** The TGI was 81.2 µM.

**Q.** What about the TGI (HOP-92 NSCLC) of the same compound?
**A.** The TGI was 78.8 µM.

**Q.** What about the TGI (KM12 colon) of the same compound?
**A.** The TGI was greater than 100 µM.

**Q.** What about the TGI (OVCAR-8 ovarian) of the same compound?
**A.** The TGI was 91.7 µM.

**Q.** What about the TGI (SF-295 CNS) of the same compound?
**A.** The TGI was 57.6 µM.

**Q.** What about the TGI (SK-MEL-28 melanoma) of the same compound?
**A.** The TGI was 69.9 µM.

**Q.** And the TGI (NCI-H226 lung)?
**A.** Its TGI is 47.3 µM.

**Q.** What about the TGI (UACC-62 melanoma) of the same compound?
**A.** The TGI was 42.7 µM.

**Q.** With `CC1C2CC(C(S(=O)(=O)N3CCOCC3)/C2=N\O)C1(C)C` (stereo not given) as the compound, how does the TGI (DU-145 prostate) read?
**A.** Its TGI is greater than 100 µM.

**Q.** What about the TGI (M14 melanoma) of the same compound?
**A.** The TGI was greater than 100 µM.

**Q.** And the TGI (MCF7 breast)?
**A.** The TGI was greater than 100 µM.

**Q.** And the TGI (A498 renal)?
**A.** The TGI was greater than 100 µM.

**Q.** And the TGI (PC-3 prostate)?
**A.** The TGI was greater than 100 µM.

**Q.** And the TGI (SN12C renal)?
**A.** Its TGI is greater than 100 µM.

**Q.** What about the TGI (HL-60(TB) leukemia) of the same compound?
**A.** Its TGI is greater than 100 µM.

**Q.** What about the TGI (ACHN renal) of the same compound?
**A.** The TGI was greater than 100 µM.

**Q.** What about the TGI (A549 NSCLC) of the same compound?
**A.** Its TGI is greater than 100 µM.

**Q.** And the TGI (SK-MEL-5 melanoma)?
**A.** Its TGI is greater than 100 µM.

**Q.** What about the TGI (MDA-N) of the same compound?
**A.** The TGI was greater than 100 µM.

**Q.** And the TGI (NCI-H460 lung)?
**A.** Its TGI is greater than 100 µM.

**Q.** And the TGI (IGROV1 ovarian)?
**A.** The TGI was greater than 100 µM.

**Q.** And the TGI (EKVX NSCLC)?
**A.** The TGI was greater than 100 µM.

**Q.** And the TGI (HOP-62 NSCLC)?
**A.** Its TGI is greater than 100 µM.

**Q.** What about the TGI (RXF 393 renal) of the same compound?
**A.** Its TGI is greater than 100 µM.

**Q.** What about the TGI (SF-268 CNS) of the same compound?
**A.** Its TGI is greater than 100 µM.

**Q.** What about the TGI (OVCAR-4 ovarian) of the same compound?
**A.** Its TGI is greater than 100 µM.

**Q.** What about the TGI (SF-539 CNS) of the same compound?
**A.** Its TGI is greater than 100 µM.

**Q.** And the TGI (MDA-MB-231 breast)?
**A.** Its TGI is greater than 100 µM.

**Q.** What about the TGI (HT29 colon) of the same compound?
**A.** The TGI was greater than 100 µM.

**Q.** And the TGI (SR leukemia)?
**A.** The TGI was greater than 100 µM.

**Q.** And the TGI (NCI-H522 lung)?
**A.** The TGI was greater than 100 µM.

**Q.** What about the TGI (LOX IMVI melanoma) of the same compound?
**A.** The TGI was greater than 100 µM.

**Q.** What about the TGI (SK-OV-3 ovarian) of the same compound?
**A.** Its TGI is greater than 100 µM.

**Q.** And the TGI (HCT-116 colon)?
**A.** Its TGI is greater than 100 µM.

**Q.** And the TGI (SNB-19 CNS)?
**A.** The TGI was greater than 100 µM.

**Q.** And the TGI (HCC-2998 colon)?
**A.** Its TGI is greater than 100 µM.

**Q.** What about the TGI (MDA-MB-435) of the same compound?
**A.** Its TGI is greater than 100 µM.

**Q.** And the TGI (UACC-257 melanoma)?
**A.** Its TGI is greater than 100 µM.

**Q.** What about the TGI (HCT-15 colon) of the same compound?
**A.** The TGI was greater than 100 µM.

**Q.** And the TGI (SNB-75 CNS)?
**A.** Its TGI is greater than 100 µM.

**Q.** And the TGI (786-0 renal)?
**A.** Its TGI is greater than 100 µM.

**Q.** What about the TGI (TK-10 renal) of the same compound?
**A.** Its TGI is greater than 100 µM.

**Q.** What about the TGI (NCI/ADR-RES ovarian) of the same compound?
**A.** Its TGI is greater than 100 µM.

**Q.** And the TGI (MALME-3M melanoma)?
**A.** The TGI was greater than 100 µM.

**Q.** What about the TGI (MOLT-4 leukemia) of the same compound?
**A.** Its TGI is greater than 100 µM.

**Q.** And the TGI (CCRF-CEM leukemia)?
**A.** Its TGI is greater than 100 µM.

**Q.** What about the TGI (UO-31 renal) of the same compound?
**A.** Its TGI is greater than 100 µM.

**Q.** And the TGI (NCI-H23 lung)?
**A.** Its TGI is greater than 100 µM.

**Q.** And the TGI (K-562 leukemia)?
**A.** Its TGI is greater than 100 µM.

**Q.** And the TGI (HOP-92 NSCLC)?
**A.** Its TGI is greater than 100 µM.

**Q.** What about the TGI (T-47D breast) of the same compound?
**A.** Its TGI is greater than 100 µM.

**Q.** And the TGI (KM12 colon)?
**A.** Its TGI is greater than 100 µM.

**Q.** What about the TGI (OVCAR-8 ovarian) of the same compound?
**A.** Its TGI is greater than 100 µM.

**Q.** What about the TGI (SF-295 CNS) of the same compound?
**A.** Its TGI is greater than 100 µM.

**Q.** What about the TGI (SK-MEL-28 melanoma) of the same compound?
**A.** The TGI was greater than 100 µM.

**Q.** What about the TGI (CAKI-1 renal) of the same compound?
**A.** The TGI was greater than 100 µM.

**Q.** And the TGI (SW-620 colon)?
**A.** The TGI was greater than 100 µM.

**Q.** What about the TGI (NCI-H226 lung) of the same compound?
**A.** Its TGI is greater than 100 µM.

**Q.** And the TGI (BT-549 breast)?
**A.** The TGI was greater than 100 µM.

**Q.** And the TGI (UACC-62 melanoma)?
**A.** Its TGI is greater than 100 µM.

**Q.** And the TGI (RPMI-8226 leukemia)?
**A.** Its TGI is greater than 100 µM.

**Q.** And the TGI (OVCAR-3 ovarian)?
**A.** The TGI was greater than 100 µM.

**Q.** And the TGI (COLO 205 colon)?
**A.** The TGI was greater than 100 µM.

**Q.** What about the TGI (HS 578T breast) of the same compound?
**A.** Its TGI is greater than 100 µM.
